Measurements as given in patent US8642590B2, “Alkylcyclohexylethers of dihydrotetraazabenzoazulenes” (Hoffmann-La Roche Inc., priority 2008, dated 2014).
Counter-ions that a name gives are not always drawn.

These compounds were tested against T1, human V1a receptor (Homo sapiens, UniProt P37288) (assay: human V1a receptor binding study (3H-Vasopressin, SPA beads, HEK293 membranes)). Details: not given.
T1 construct: expressed in transfected cells; host or cells: HEK293 cells, transiently transfected; cell membranes prepared
Protocol: The human V1a receptor was cloned by RT-PCR from total human liver RNA. The coding sequence was subcloned in an expression vector after sequencing to confirm the identity of the amplified sequence. […] Cell membranes were prepared from HEK293 cells transiently transfected with the expression vector and grown in 20 liter fermenters with the following protocol.
50 g of cells are resuspended in 30 ml freshly prepared ice cold Lysis buffer (50 mM HEPES, 1 mM EDTA, 10 mM magnesium dichloride adjusted to pH=7.4+complete cocktail of protease inhibitor (Roche Diagnostics)). Homogenized with Polytron for 1 min and sonicated on ice for 2×2 minutes at 80% intensity (Vibracell sonicator). The preparation is centrifuged 20 min at 500 g at 4° C., the pellet is discarded and the supernatant centrifuged 1 hour at 43,000 g at 4° C. (19,000 rpm). The pellet is resuspended in 12.5 ml Lysis buffer+12.5 ml Sucrose 20% and homogenized using a Polytron for 1-2 min. The protein concentration is determined by the Bradford method and aliquots are stored at −80° C. until use. For binding studies 60 mg Yttrium silicate SPA beads (Amersham) are mixed with an aliquot of membrane in binding buffer (50 mM Tris, 120 mM sodium chloride, 5 mM potassium chloride, 2 mM Calcium dichloride, 10 mM magnesium dichloride) for 15 minutes with mixing. 50 μl of bead/membrane mixture is then added to each well of a 96 well plate, followed by 50 μl of 4 nM 3H-Vasopressin (American Radiolabeled Chemicals). For total binding measurement 100 μl of binding buffer are added to the respective wells, for non-specific binding 100 μl of 8.4 mM cold vasopressin and for compound testing 100 μl of a serial dilution of each compound in 2% dimethyl sulfoxide. The plate is incubated 1 h at room temperature, centrifuged 1 min at 1000 g and counted on a Packard Top-Count. Non-specific binding counts are subtracted from each well and data is normalized to the maximum specific binding set at 100%. To calculate an IC 50 the curve is fitted using a non-linear regression model (XLfit) and the Ki is calculated using the Cheng-Prussoff equation.

T1 sequence (P37288 whole entry): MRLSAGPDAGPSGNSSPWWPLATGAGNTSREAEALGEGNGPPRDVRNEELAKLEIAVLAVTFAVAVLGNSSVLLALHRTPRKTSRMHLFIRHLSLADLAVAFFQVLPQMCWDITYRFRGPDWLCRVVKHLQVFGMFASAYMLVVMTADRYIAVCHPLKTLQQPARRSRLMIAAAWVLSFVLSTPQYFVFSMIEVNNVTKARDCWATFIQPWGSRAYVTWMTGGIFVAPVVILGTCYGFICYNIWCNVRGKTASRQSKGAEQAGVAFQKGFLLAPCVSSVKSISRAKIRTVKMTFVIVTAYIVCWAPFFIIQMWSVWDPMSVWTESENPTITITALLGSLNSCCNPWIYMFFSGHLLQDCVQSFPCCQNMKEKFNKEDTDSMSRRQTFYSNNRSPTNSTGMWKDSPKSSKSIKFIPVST

| Structure (SMILES) | Ki [nM] |
| --- | --- |
| CC(C)(C)OC(=O)N1Cc2cc(Cl)ccc2-n2c(nnc2[C@H]2CC[C@H](OC3CCC3)CC2)C1 [Example 30, trans-8-Chloro-1-(4-cyclobutoxy-cyclohexyl)-4H,6H-2,3,5,10b-tetraaza-benzo[e]azulene-5-carboxylic acid tert-butyl ester] | 2.82 |
| CC(C)(C)OC(=O)N1Cc2cc(Cl)ccc2-n2c(nnc2[C@H]2CC[C@@H](OC3CCC3)CC2)C1 [Example 33, cis-8-Chloro-1-(4-cyclobutoxy-cyclohexyl)-4H,6H-2,3,5,10b-tetraaza-benzo[e]azulene-5-carboxylic acid tert-butyl ester] | 7.59 |
| CC(C)(C)OC(=O)N1Cc2cc(Cl)ccc2-n2c(nnc2[C@H]2CC[C@H](OC3CCCCC3)CC2)C1 [Example 39, trans-8-Chloro-1-(4-cyclohexyloxy-cyclohexyl)-4H,6H-2,3,5,10b-tetraaza-benzoazulene-5-carboxylic acid tert-butyl ester] | 6.46 |
| CC(C)(C)OC(=O)N1Cc2cc(Cl)ccc2-n2c(nnc2[C@H]2CC[C@@H](OC3CCCCC3)CC2)C1 [Example 42, cis-8-Chloro-1-(4-cyclohexyloxy-cyclohexyl)-4H,6H-2,3,5,10b-tetraaza-benzoazulene-5-carboxylic acid tert-butyl ester] | 17.8 |

Same assay, conditions: membranes of HEK293 cells transiently transfected with human V1a receptor; 3H-Vasopressin; Ki calculated using the Cheng-Prussoff equation; read-out: pKi (hV1a) (converted)

| Structure (SMILES) | Ki [nM] |
| --- | --- |
| CC(C)O[C@H]1CC[C@H](c2nnc3n2-c2ccc(Cl)cc2CN(C)C3)CC1 [Example 10, trans-8-Chloro-1-(4-isopropoxy-cyclohexyl)-5-methyl-5,6-dihydro-4H-2,3,5,10b-tetraaza-benzo[e]azulene] | 2.82 |
| CC(C)O[C@H]1CC[C@H](c2nnc3n2-c2ccc(Cl)cc2CN(S(C)(=O)=O)C3)CC1 [Example 11, trans-8-Chloro-1-(4-isopropoxy-cyclohexyl)-5-methanesulfonyl-5,6-dihydro-4H-2,3,5,10b-tetraaza-benzoazulene] | 1.1 |
| CC(C)O[C@H]1CC[C@H](c2nnc3n2-c2ccc(Cl)cc2CN(CCO)C3)CC1 [Example 12, trans-2-[8-Chloro-1-(4-isopropoxy-cyclohexyl)-4H,6H-2,3,5,10b-tetraaza-benzoazulen-5-yl]-ethanol] | 2.29 |
| CC(C)O[C@H]1CC[C@H](c2nnc3n2-c2ccc(Cl)cc2CN(C(C)C)C3)CC1 [Example 13, trans-8-Chloro-1-(4-isopropoxy-cyclohexyl)-5-isopropyl-5,6-dihydro-4H-2,3,5,10b-tetraaza-benzoazulene] | 1.51 |
| CC(C)O[C@H]1CC[C@H](c2nnc3n2-c2ccc(Cl)cc2CN(S(=O)(=O)N(C)C)C3)CC1 [Example 14, trans-8-Chloro-1-(4-isopropoxy-cyclohexyl)-4H,6H-2,3,5,10b-tetraaza-benzoazulene-5-sulfonic acid dimethylamide] | 1 |
| CC(C)O[C@H]1CC[C@H](c2nnc3n2-c2ccc(Cl)cc2CN(Cc2ccccn2)C3)CC1 [Example 15, trans-8-Chloro-1-(4-isopropoxy-cyclohexyl)-5-pyridin-2-ylmethyl-5,6-dihydro-4H-2,3,5,10b-tetraaza-benzoazulene] | 1.41 |
| CC(=O)OCC(=O)N1Cc2cc(Cl)ccc2-n2c(nnc2[C@H]2CC[C@H](OC(C)C)CC2)C1 [Example 16, trans-Acetic acid 2-[8-chloro-1-(4-isopropoxy-cyclohexyl)-4H,6H-2,3,5,10b-tetraaza-benzoazulen-5-yl]-2-oxo-ethyl ester] | 3.47 |
| CC(C)O[C@H]1CC[C@H](c2nnc3n2-c2ccc(Cl)cc2CN(C(=O)CO)C3)CC1 [Example 17, trans-1-[8-Chloro-1-(4-isopropoxy-cyclohexyl)-4H,6H-2,3,5,10b-tetraaza-benzoazulen-5-yl]-2-hydroxy-ethanone] | 3.47 |
| CC(=O)N1Cc2cc(Cl)ccc2-n2c(nnc2[C@H]2CC[C@H](OC(C)C)CC2)C1 [Example 18, trans-1-[8-Chloro-1-(4-isopropoxy-cyclohexyl)-4H,6H-2,3,5,10b-tetraaza-benzoazulen-5-yl]-ethanone] | 2.51 |
| CC(C)O[C@H]1CC[C@H](c2nnc3n2-c2ccc(F)cc2CN(C(=O)OC(C)(C)C)C3)CC1 [Example 19, trans-8-Fluoro-1-(4-isopropoxy-cyclohexyl)-4H,6H-2,3,5,10b-tetraaza-benzo[e]azulene-5-carboxylic acid tert-butyl ester] | 3.8 |
| CC(C)O[C@H]1CC[C@H](c2nnc3n2-c2ccc(F)cc2CNC3)CC1 [Example 20, trans-8-Fluoro-1-(4-isopropoxy-cyclohexyl)-5,6-dihydro-4H-2,3,5,10b-tetraaza-benzo[e]azulene hydrochloride] | 251 |
| CC(C)O[C@H]1CC[C@H](c2nnc3n2-c2ccc(F)cc2CN(C)C3)CC1 [Example 21, trans-8-Fluoro-1-(4-isopropoxy-cyclohexyl)-5-methyl-5,6-dihydro-4H-2,3,5,10b-tetraaza-benzo[e]azulene] | 29.5 |
| CC(C)O[C@H]1CC[C@@H](c2nnc3n2-c2ccc(Cl)cc2CN(C(=O)OC(C)(C)C)C3)CC1 [Example 22, cis-8-Chloro-1-(4-isopropoxy-cyclohexyl)-4H,6H-2,3,5,10b-tetraaza-benzo[e]azulene-5-carboxylic acid tert-butyl ester] | 8.91 |
| CC(C)O[C@H]1CC[C@@H](c2nnc3n2-c2ccc(Cl)cc2CNC3)CC1 [Example 23, cis-8-Chloro-1-(4-isopropoxy-cyclohexyl)-5,6-dihydro-4H-2,3,5,10b-tetraaza-benzo[e]azulene hydrochloride] | 363 |
| CC(C)O[C@H]1CC[C@@H](c2nnc3n2-c2ccc(Cl)cc2CN(C)C3)CC1 [Example 24, cis-8-Chloro-1-(4-isopropoxy-cyclohexyl)-5-methyl-5,6-dihydro-4H-2,3,5,10b-tetraaza-benzo[e]azulene] | 26.9 |
| Clc1ccc2c(c1)CNCc1nnc([C@H]3CC[C@H](OC4CCC4)CC3)n1-2 [Example 31, trans-8-Chloro-1-(4-cyclobutoxy-cyclohexyl)-5,6-dihydro-4H-2,3,5,10b-tetraaza-benzo[e]azulene hydrochloride] | 10.7 |
| CN1Cc2cc(Cl)ccc2-n2c(nnc2[C@H]2CC[C@H](OC3CCC3)CC2)C1 [Example 32, trans-8-Chloro-1-(4-cyclobutoxy-cyclohexyl)-5-methyl-5,6-dihydro-4H-2,3,5,10b-tetraaza-benzo[e]azulene] | 1.29 |
| Clc1ccc2c(c1)CNCc1nnc([C@H]3CC[C@@H](OC4CCC4)CC3)n1-2 [Example 34, cis-8-Chloro-1-(4-cyclobutoxy-cyclohexyl)-5,6-dihydro-4H-2,3,5,10b-tetraaza-benzo[e]azulene hydrochloride] | 145 |
| CN1Cc2cc(Cl)ccc2-n2c(nnc2[C@H]2CC[C@@H](OC3CCC3)CC2)C1 [Example 35, cis-8-Chloro-1-(4-cyclobutoxy-cyclohexyl)-5-methyl-5,6-dihydro-4H-2,3,5,10b-tetraaza-benzo[e]azulene] | 7.94 |
| Clc1ccc2c(c1)CNCc1nnc([C@H]3CC[C@H](OC4CCCC4)CC3)n1-2 [Example 37, trans-8-Chloro-1-(4-cyclopentyloxy-cyclohexyl)-5,6-dihydro-4H-2,3,5,10b-tetraaza-benzo[e]azulene hydrochloride] | 3.47 |
| CN1Cc2cc(Cl)ccc2-n2c(nnc2[C@H]2CC[C@H](OC3CCCC3)CC2)C1 [Example 38, trans-8-Chloro-1-(4-cyclopentyloxy-cyclohexyl)-5-methyl-5,6-dihydro-4H-2,3,5,10b-tetraaza-benzo[e]azulene] | 0.794 |
| Clc1ccc2c(c1)CNCc1nnc([C@H]3CC[C@H](OC4CCCCC4)CC3)n1-2 [Example 40, trans-8-Chloro-1-(4-cyclohexyloxy-cyclohexyl)-5,6-dihydro-4H-2,3,5,10b-tetraaza-benzoazulene hydrochloride] | 34.7 |
| CN1Cc2cc(Cl)ccc2-n2c(nnc2[C@H]2CC[C@H](OC3CCCCC3)CC2)C1 [Example 41, trans-8-Chloro-1-(4-cyclohexyloxy-cyclohexyl)-5-methyl-5,6-dihydro-4H-2,3,5,10b-tetraaza-benzoazulene] | 2.88 |
| Clc1ccc2c(c1)CNCc1nnc([C@H]3CC[C@@H](OC4CCCCC4)CC3)n1-2 [Example 43, cis-8-Chloro-1-(4-cyclohexyloxy-cyclohexyl)-5,6-dihydro-4H-2,3,5,10b-tetraaza-benzoazulene hydrochloride] | 174 |
| CN1Cc2cc(Cl)ccc2-n2c(nnc2[C@H]2CC[C@@H](OC3CCCCC3)CC2)C1 [Example 44, cis-8-Chloro-1-(4-cyclohexyloxy-cyclohexyl)-5-methyl-5,6-dihydro-4H-2,3,5,10b-tetraaza-benzoazulene] | 14.1 |
